Experimental data: US20230373985A1 (Origenis Gmbh, priority 2020, published 2023)

Columns and labels:
[1] = target: T1, wt human LRRK2, catalytic site (Homo sapiens, UniProt Q5S007); test: TR-FRET LanthaScreen Eu Kinase Binding Assay, LRRK2 wt; conditions: one range stated for wt and G2019, read-out: IC50, Activity Toward LRRK2(Wt)
T1 construct: 5 nM wt human LRRK2, catalytic site; purchased ThermoFisher
Method in brief: (§1)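 NUAK1: 8 nM enzyme, 2 nM Eu-anti-His antibody, 5 nM Tracer 236. LRRK2 wt/G2019S: 5 nM enzyme, 2 nM Eu-anti-GST antibody, 10 nM Tracer 236. Kinase Buffer A, 1 h RT, TR-FRET ratio.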

[2] = target: T2, G2019S human LRRK2, catalytic site (Homo sapiens, UniProt Q5S007, G2019S); test: TR-FRET LanthaScreen Eu Kinase Binding Assay, LRRK2 G2019S; conditions: LRRK2(G2019); one range stated for wt and G2019; read-out: IC50, Activity Toward LRRK2(G2019)
T2 construct: G2019S human LRRK2, catalytic site; purchased ThermoFisher
Method in brief: as §1

[3] = target: T3, wt human TYK2, catalytic site (Homo sapiens, UniProt P29597); test: HTRF KinEASE assay, TYK2; assay type: biochemical; conditions: 1 μM ATP; read-out: IC50, Activity Toward TYK2
T3 construct: wt human TYK2, catalytic site; purchased SignalChem
T3 sequence (P29597 897-1176 limits assumed): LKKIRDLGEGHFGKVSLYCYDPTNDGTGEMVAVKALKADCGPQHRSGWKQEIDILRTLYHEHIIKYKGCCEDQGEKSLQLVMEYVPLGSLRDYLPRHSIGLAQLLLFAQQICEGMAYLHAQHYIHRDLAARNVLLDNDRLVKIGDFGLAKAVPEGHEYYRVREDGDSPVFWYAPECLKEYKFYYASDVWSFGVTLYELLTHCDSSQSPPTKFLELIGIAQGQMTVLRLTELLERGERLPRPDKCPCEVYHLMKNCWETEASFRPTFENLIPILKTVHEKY
Method in brief: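 Kinase reaction run at room temperature for at least 30 min: 2 nM TYK2 with 1 μM ATP, or 1 nM JAK2 with 100 μM ATP, each with 1 μM biotin-TK substrate. Phosphorylation detected by HTRF (60 min antibody/XL665) and evaluated from emission ratios.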

[4] = target: T4, wt human NUAK1, full length (Homo sapiens, UniProt O60285); test: TR-FRET LanthaScreen Eu Kinase Binding Assay, NUAK1; conditions: read-out: IC50, Activity Toward NUAK1
T4 construct: 8 nM wt human NUAK1, full length (ThermoFisher/USA); purchased ThermoFisher
T4 sequence (O60285 1-661): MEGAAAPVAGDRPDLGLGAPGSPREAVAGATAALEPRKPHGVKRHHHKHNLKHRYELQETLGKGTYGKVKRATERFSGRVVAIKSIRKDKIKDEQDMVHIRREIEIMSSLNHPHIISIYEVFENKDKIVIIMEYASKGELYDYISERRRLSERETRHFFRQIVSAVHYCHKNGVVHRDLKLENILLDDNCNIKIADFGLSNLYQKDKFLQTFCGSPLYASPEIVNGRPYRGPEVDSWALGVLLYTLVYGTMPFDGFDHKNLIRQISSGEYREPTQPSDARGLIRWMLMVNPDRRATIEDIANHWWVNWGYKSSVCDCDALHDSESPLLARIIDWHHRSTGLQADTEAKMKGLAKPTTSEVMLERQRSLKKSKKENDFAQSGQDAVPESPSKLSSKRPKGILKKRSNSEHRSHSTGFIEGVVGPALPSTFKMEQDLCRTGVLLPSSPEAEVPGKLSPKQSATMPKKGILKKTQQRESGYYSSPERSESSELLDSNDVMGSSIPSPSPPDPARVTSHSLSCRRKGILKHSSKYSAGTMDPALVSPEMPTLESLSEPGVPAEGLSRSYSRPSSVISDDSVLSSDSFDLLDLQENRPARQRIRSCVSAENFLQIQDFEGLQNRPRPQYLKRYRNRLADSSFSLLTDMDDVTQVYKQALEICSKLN
Method in brief: as §1

[5] = target: T5, wt human JAK1, catalytic site (Homo sapiens, UniProt P23458); test: HTRF KinEASE assay, JAK1; assay type: biochemical; conditions: 2.5 μM ATP; read-out: IC50, Activity Toward JAK1
T5 construct: wt human JAK1, catalytic site; purchased ThermoFisher
Method in brief: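 Compounds in DMSO dilution were mixed with kinase, biotin-TK substrate and ATP and reacted for ≥30 min at room temperature. Detection reagents (antibody, streptavidin-XL665) were read 60 min later as HTRF, with emission ratios analysed per KinEASE protocol.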

T2 sequence (Q5S007 970-2527 G2019S limits assumed): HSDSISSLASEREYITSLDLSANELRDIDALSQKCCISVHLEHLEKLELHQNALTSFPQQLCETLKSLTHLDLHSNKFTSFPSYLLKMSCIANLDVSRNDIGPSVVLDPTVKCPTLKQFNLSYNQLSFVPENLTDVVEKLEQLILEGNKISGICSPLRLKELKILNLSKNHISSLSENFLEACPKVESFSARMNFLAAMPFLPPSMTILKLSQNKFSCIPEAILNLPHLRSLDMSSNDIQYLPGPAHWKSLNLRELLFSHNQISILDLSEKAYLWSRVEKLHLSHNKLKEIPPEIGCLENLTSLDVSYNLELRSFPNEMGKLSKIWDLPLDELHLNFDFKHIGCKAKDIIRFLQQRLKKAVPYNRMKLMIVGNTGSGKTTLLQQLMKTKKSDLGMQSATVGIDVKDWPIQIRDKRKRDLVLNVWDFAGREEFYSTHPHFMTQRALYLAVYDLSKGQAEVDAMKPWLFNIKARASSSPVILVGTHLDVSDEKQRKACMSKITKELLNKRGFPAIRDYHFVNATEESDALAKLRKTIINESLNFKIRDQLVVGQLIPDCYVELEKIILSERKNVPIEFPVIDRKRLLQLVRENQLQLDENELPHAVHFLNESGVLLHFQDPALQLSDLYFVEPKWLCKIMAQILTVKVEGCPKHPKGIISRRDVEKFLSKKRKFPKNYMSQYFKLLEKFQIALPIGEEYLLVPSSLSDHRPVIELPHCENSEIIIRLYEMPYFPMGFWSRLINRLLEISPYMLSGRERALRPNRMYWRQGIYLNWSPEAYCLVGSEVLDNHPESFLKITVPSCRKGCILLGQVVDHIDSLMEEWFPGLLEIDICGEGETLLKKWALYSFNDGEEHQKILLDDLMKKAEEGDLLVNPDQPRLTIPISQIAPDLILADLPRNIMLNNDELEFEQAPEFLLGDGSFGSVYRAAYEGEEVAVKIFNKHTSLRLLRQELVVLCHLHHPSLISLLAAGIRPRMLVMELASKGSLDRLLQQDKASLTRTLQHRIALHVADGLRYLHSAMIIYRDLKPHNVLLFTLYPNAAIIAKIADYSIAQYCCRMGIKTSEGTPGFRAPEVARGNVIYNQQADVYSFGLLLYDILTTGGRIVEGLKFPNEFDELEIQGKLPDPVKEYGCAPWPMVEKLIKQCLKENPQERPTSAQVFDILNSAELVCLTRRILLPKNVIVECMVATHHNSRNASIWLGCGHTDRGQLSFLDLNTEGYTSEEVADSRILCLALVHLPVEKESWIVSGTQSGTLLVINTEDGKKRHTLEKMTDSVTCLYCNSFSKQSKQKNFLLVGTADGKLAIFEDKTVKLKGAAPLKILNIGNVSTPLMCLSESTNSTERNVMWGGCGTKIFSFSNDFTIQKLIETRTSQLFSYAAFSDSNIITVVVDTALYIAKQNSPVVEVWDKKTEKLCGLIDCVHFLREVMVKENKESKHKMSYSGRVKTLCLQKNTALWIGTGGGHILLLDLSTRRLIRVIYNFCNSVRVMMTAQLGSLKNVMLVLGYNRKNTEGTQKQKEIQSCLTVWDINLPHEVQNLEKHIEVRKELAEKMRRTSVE
T1 sequence (Q5S007 970-2527 limits assumed): as the sequence (Q5S007 970-2527 G2019S limits assumed) above, with S1050G counted along it
T5 sequence (P23458 875-1153 limits assumed): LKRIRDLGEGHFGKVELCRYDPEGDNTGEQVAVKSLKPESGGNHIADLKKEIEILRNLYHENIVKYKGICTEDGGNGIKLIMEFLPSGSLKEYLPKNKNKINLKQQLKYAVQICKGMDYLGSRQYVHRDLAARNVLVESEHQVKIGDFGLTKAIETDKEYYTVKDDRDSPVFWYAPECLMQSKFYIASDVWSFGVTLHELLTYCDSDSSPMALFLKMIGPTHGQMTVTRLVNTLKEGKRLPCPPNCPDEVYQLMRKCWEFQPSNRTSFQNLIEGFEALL

Structure (SMILES): NC(=O)c1nn(-c2c(Cl)cccc2Cl)cc1Nc1ccc(C(=O)N2CC(C(N)=O)C2)cc1 [compound 453, 4-[4-(3-Carbamoyl-azetidine-1-carbonyl)-phenylamino]-1-(2,6-dichloro-phenyl)-1H-pyrazole-3-carboxylic acid amide]
- IC50 [1]: 100 to 1000 nM
- IC50 [2]: 100 to 1000 nM
- IC50 [3]: < 10 nM
- IC50 [4]: 100 to 1000 nM
- IC50 [5]: < 10 nM

Structure (SMILES): CN1CCC(NC(=O)c2ccc(Nc3cn(-c4c(Cl)cccc4Cl)nc3C(N)=O)cc2)CC1 [compound 31, 1-(2,6-dichlorophenyl)-4-((4-((1-methylpiperidin-4-yl)carbamoyl)phenyl)amino)-1H-pyrazole-3-carboxamide]
- IC50 [1]: 100 to 1000 nM
- IC50 [2]: 100 to 1000 nM
- IC50 [3]: 10 to 100 nM
- IC50 [4]: 100 to 1000 nM
- IC50 [5]: 10 to 100 nM

Structure (SMILES): NC(=O)c1nn(-c2c(Cl)cccc2Cl)cc1Nc1ccc(C(=O)N2CCCCC2)cc1 [compound 82, 1-(2,6-dichlorophenyl)-4-((4-(piperidine-1-carbonyl)phenyl)amino)-1H-pyrazole-3-carboxamide]
- IC50 [1]: 100 to 1000 nM
- IC50 [2]: 100 to 1000 nM
- IC50 [3]: 10 to 100 nM
- IC50 [4]: 100 to 1000 nM
- IC50 [5]: 10 to 100 nM

Structure (SMILES): Cc1ccn(-c2ccc(Nc3cn(-c4c(F)cccc4Cl)nc3C(N)=O)cc2)n1 [compound 232, 1-(2-chloro-6-fluorophenyl)-4-((4-(3-methyl-1H-pyrazol-1-yl)phenyl)amino)-1H-pyrazole-3-carboxamide]
- IC50 [1]: 100 to 1000 nM
- IC50 [2]: 100 to 1000 nM
- IC50 [3]: 10 to 100 nM
- IC50 [4]: 100 to 1000 nM
- IC50 [5]: 10 to 100 nM

Structure (SMILES): CC(=O)N1CC(n2cc(C(F)(F)F)nc2-c2ccc(Nc3cn(-c4c(Cl)cccc4Cl)nc3C(N)=O)cc2)C1 [compound 342, 4-((4-(1-(1-acetylazetidin-3-yl)-4-(trifluoromethyl)-1H-imidazol-2-yl)phenyl)amino)-1-(2,6-dichlorophenyl)-1H-pyrazole-3-carboxamide]
- IC50 [1]: 100 to 1000 nM
- IC50 [2]: 100 to 1000 nM
- IC50 [3]: < 10 nM
- IC50 [4]: 100 to 1000 nM
- IC50 [5]: 100 to 1000 nM

Structure (SMILES): CC(C)n1ncnc1-c1ccc(Nc2cn(-c3c(F)cccc3F)nc2C(N)=O)cc1 [compound 309, 1-(2,6-difluorophenyl)-4-((4-(1-isopropyl-1H-1,2,4-triazol-5-yl)phenyl)amino)-1H-pyrazole-3-carboxamide]
- IC50 [1]: 10 to 100 nM
- IC50 [2]: 10 to 100 nM
- IC50 [3]: 100 to 1000 nM
- IC50 [4]: 100 to 1000 nM
- IC50 [5]: 100 to 1000 nM

Structure (SMILES): CN(C)C1CCN(C(=O)c2ccc(Nc3cn(-c4c(Cl)cccc4Cl)nc3C(N)=O)cc2)CC1 [compound 423, 1-(2,6-dichlorophenyl)-4-((4-(4-(dimethylamino)piperidine-1-carbonyl)phenyl)amino)-1H-pyrazole-3-carboxamide]
- IC50 [1]: 100 to 1000 nM
- IC50 [2]: 100 to 1000 nM
- IC50 [3]: 10 to 100 nM
- IC50 [4]: 100 to 1000 nM
- IC50 [5]: 10 to 100 nM

Structure (SMILES): NC(=O)c1nn(-c2c(Cl)cccc2Cl)cc1Nc1ccc(C(=O)N2CCC(N)C2)cc1 (stereo not shown) [compound 317, 4-((4-(3-aminopyrrolidine-1-carbonyl)phenyl)amino)-1-(2,6-dichlorophenyl)-1H-pyrazole-3-carboxamide]
- IC50 [1]: 100 to 1000 nM
- IC50 [2]: 100 to 1000 nM
- IC50 [3]: 10 to 100 nM
- IC50 [4]: 100 to 1000 nM
- IC50 [5]: 10 to 100 nM

Structure (SMILES): NC(=O)c1nn(-c2c(F)cccc2C(F)(F)F)cc1Nc1ccc(C(=O)N2CC3(CCC3)C2)cc1 [compound 61, 4-((4-(2-azaspiro[3.3]heptane-2-carbonyl)phenyl)amino)-1-(2-fluoro-6-(trifluoromethyl)phenyl)-1H-pyrazole-3-carboxamide]
- IC50 [1]: 100 to 1000 nM
- IC50 [2]: 100 to 1000 nM
- IC50 [3]: 10 to 100 nM
- IC50 [4]: 100 to 1000 nM
- IC50 [5]: 100 to 1000 nM

Structure (SMILES): Cn1cc(C(F)(F)F)nc1-c1ccc(Nc2cn(-c3c(F)cccc3F)nc2C(N)=O)cc1 [compound 308, 1-(2,6-difluorophenyl)-4-((4-(1-methyl-4-(trifluoromethyl)-1H-imidazol-2-yl)phenyl)amino)-1H-pyrazole-3-carboxamide]
- IC50 [1]: 100 to 1000 nM
- IC50 [2]: 100 to 1000 nM
- IC50 [3]: 10 to 100 nM
- IC50 [4]: 100 to 1000 nM
- IC50 [5]: 10 to 100 nM

Structure (SMILES): NC(=O)c1nn(-c2c(Cl)cccc2Cl)cc1Nc1ccc(C(=O)N2CC[C@@H](N3CCCC3)C2)cc1 [compound 331, (R)-4-((4-([1,3′-bipyrrolidine]-1′-carbonyl)phenyl)amino)-1-(2,6-dichlorophenyl)-1H-pyrazole-3-carboxamide]
- IC50 [1]: 100 to 1000 nM
- IC50 [2]: 100 to 1000 nM
- IC50 [3]: 10 to 100 nM
- IC50 [4]: 100 to 1000 nM
- IC50 [5]: 100 to 1000 nM

Structure (SMILES): CN1CCC(Oc2ccc(Nc3cn(-c4c(F)cccc4F)nc3C(N)=O)cc2)CC1 [compound 288, 1-(2,6-difluorophenyl)-4-((4-((1-methylpiperidin-4-yl)oxy)phenyl)amino)-1H-pyrazole-3-carboxamide]
- IC50 [1]: 100 to 1000 nM
- IC50 [2]: 100 to 1000 nM
- IC50 [3]: 10 to 100 nM
- IC50 [4]: 10 to 100 nM
- IC50 [5]: 100 to 1000 nM

Structure (SMILES): NC(=O)c1nn(-c2c(F)cccc2Cl)cc1Nc1ccc(C(=O)N2CCCCC2)cc1 [compound 228, 1-(2-chloro-6-fluorophenyl)-4-((4-(piperidine-1-carbonyl)phenyl)amino)-1H-pyrazole-3-carboxamide]
- IC50 [1]: 100 to 1000 nM
- IC50 [2]: 100 to 1000 nM
- IC50 [3]: 10 to 100 nM
- IC50 [4]: 100 to 1000 nM
- IC50 [5]: 10 to 100 nM

Structure (SMILES): Cn1nc(C(F)(F)F)nc1-c1ccc(Nc2cn(-c3c(F)cccc3F)nc2C(N)=O)cc1 [compound 285, 1-(2,6-difluorophenyl)-4-((4-(1-methyl-3-(trifluoromethyl)-1H-1,2,4-triazol-5-yl)phenyl)amino)-1H-pyrazole-3-carboxamide]
- IC50 [1]: 100 to 1000 nM
- IC50 [2]: 100 to 1000 nM
- IC50 [3]: 10 to 100 nM
- IC50 [4]: 100 to 1000 nM
- IC50 [5]: 10 to 100 nM

Structure (SMILES): CCc1ccnn1-c1ccc(Nc2cn(-c3c(F)cccc3Cl)nc2C(N)=O)cc1 [compound 286, 1-(2-chloro-6-fluorophenyl)-4-((4-(5-ethyl-1H-pyrazol-1-yl)phenyl)amino)-1H-pyrazole-3-carboxamide]
- IC50 [1]: 100 to 1000 nM
- IC50 [2]: 100 to 1000 nM
- IC50 [3]: 10 to 100 nM
- IC50 [4]: 100 to 1000 nM
- IC50 [5]: 100 to 1000 nM

Structure (SMILES): N#Cc1cn(C2COC2)c(-c2ccc(Nc3cn(-c4c(Cl)cccc4Cl)nc3C(N)=O)cc2)n1 [compound 349, 4-((4-(4-cyano-1-(oxetan-3-yl)-1H-imidazol-2-yl)phenyl)amino)-1-(2,6-dichlorophenyl)-1H-pyrazole-3-carboxamide]
- IC50 [1]: 100 to 1000 nM
- IC50 [2]: 100 to 1000 nM
- IC50 [3]: < 10 nM
- IC50 [4]: 100 to 1000 nM
- IC50 [5]: 100 to 1000 nM

Structure (SMILES): CC(C)(C)NC(=O)c1ccc(Nc2cn(-c3c(F)cccc3F)nc2C(N)=O)cc1 [compound 15, 4-((4-(tert-butylcarbamoyl)phenyl)amino)-1-(2,6-difluorophenyl)-1H-pyrazole-3-carboxamide]
- IC50 [1]: 100 to 1000 nM
- IC50 [2]: 100 to 1000 nM
- IC50 [3]: 10 to 100 nM
- IC50 [4]: 100 to 1000 nM
- IC50 [5]: 100 to 1000 nM
